This is an account of results in PubChem BioAssay AID1259407 (Chemical Carcinogenesis Research Information System (CCRIS), 2018).

Calls of active or inactive are those of the source. How the calls were made is not given here.

For this data set, the system named is CCRIS mutagenicity, Ames/micronucleus/aberration tests. The experiment in a line: CCRIS mutagenicity studies.
Where [1] appears, read: Test System: AMES SALMONELLA TYPHIMURIUM, Strain/Indicator: TA100, Metabolic Activation: NONE, Method: PREINCUBATION

For the molecule `C[C@H](CN=[N+]=[N-])c1ccccc1`, the mutagenic call was “inactive; negative” under setting [1] and “active; positive” (Test System: AMES SALMONELLA TYPHIMURIUM, Strain/Indicator: TA100, Metabolic Activation: RAT, LIVER, S-9, PCB, Method: PREINCUBATION).

Take `COCCCN(N=O)C(N)=O`: the mutagenic call (Test System: E. COLI B, Strain/Indicator: H/R30R, Metabolic Activation: NONE) is “active; positive” and the mutagenic call (Test System: E. COLI B, Strain/Indicator: HS30R, Metabolic Activation: NONE) is “active; positive”.

As to `CCSCCC(N)C(=O)O` (centres undefined), the mutagenic call is “inactive; negative” (Test System: AMES SALMONELLA TYPHIMURIUM, Strain/Indicator: TA97, Metabolic Activation: HAMSTER, LIVER, S-9, AROCLOR 1254 (10%), Method: PREINCUBATION); “inactive; negative” (Test System: AMES SALMONELLA TYPHIMURIUM, Strain/Indicator: TA97, Metabolic Activation: HAMSTER, LIVER, S-9, AROCLOR 1254 (30%), Method: PREINCUBATION); “inactive; negative” (Test System: AMES SALMONELLA TYPHIMURIUM, Strain/Indicator: TA97, Metabolic Activation: NONE, Method: PREINCUBATION); “inactive; negative” (Test System: AMES SALMONELLA TYPHIMURIUM, Strain/Indicator: TA97, Metabolic Activation: RAT, LIVER, S-9, AROCLOR 1254 (10%), Method: PREINCUBATION); “inactive; negative” (Test System: AMES SALMONELLA TYPHIMURIUM, Strain/Indicator: TA97, Metabolic Activation: RAT, LIVER, S-9, AROCLOR 1254 (30%), Method: PREINCUBATION); “inactive; negative” (Test System: AMES SALMONELLA TYPHIMURIUM, Strain/Indicator: TA98, Metabolic Activation: HAMSTER, LIVER, S-9, AROCLOR 1254 (10%), Method: PREINCUBATION). Moreover, the mutagenic call reads like this: (Test System: AMES SALMONELLA TYPHIMURIUM, Strain/Indicator: TA98, Metabolic Activation: HAMSTER, LIVER, S-9, AROCLOR 1254 (30%), Method: PREINCUBATION) “inactive; negative”; (Test System: AMES SALMONELLA TYPHIMURIUM, Strain/Indicator: TA98, Metabolic Activation: NONE, Method: PREINCUBATION) “inactive; negative”; (Test System: AMES SALMONELLA TYPHIMURIUM, Strain/Indicator: TA98, Metabolic Activation: RAT, LIVER, S-9, AROCLOR 1254 (10%), Method: PREINCUBATION) “inactive; negative”; (Test System: AMES SALMONELLA TYPHIMURIUM, Strain/Indicator: TA98, Metabolic Activation: RAT, LIVER, S-9, AROCLOR 1254 (30%), Method: PREINCUBATION) “inactive; negative”; (Test System: AMES SALMONELLA TYPHIMURIUM, Strain/Indicator: TA100, Metabolic Activation: HAMSTER, LIVER, S-9, AROCLOR 1254 (10%), Method: PREINCUBATION) “inactive; negative”; (Test System: AMES SALMONELLA TYPHIMURIUM, Strain/Indicator: TA100, Metabolic Activation: HAMSTER, LIVER, S-9, AROCLOR 1254 (30%), Method: PREINCUBATION) “inactive; negative”. The mutagenic call was “inactive; negative” under setting [1]; “inactive; negative” (Test System: AMES SALMONELLA TYPHIMURIUM, Strain/Indicator: TA100, Metabolic Activation: RAT, LIVER, S-9, AROCLOR 1254 (10%), Method: PREINCUBATION); “inactive; negative” (Test System: AMES SALMONELLA TYPHIMURIUM, Strain/Indicator: TA100, Metabolic Activation: RAT, LIVER, S-9, AROCLOR 1254 (30%), Method: PREINCUBATION); “inactive; negative” (Test System: AMES SALMONELLA TYPHIMURIUM, Strain/Indicator: TA104, Metabolic Activation: HAMSTER, LIVER, S-9, AROCLOR 1254 (10%), Method: PREINCUBATION); “inactive; negative” (Test System: AMES SALMONELLA TYPHIMURIUM, Strain/Indicator: TA104, Metabolic Activation: HAMSTER, LIVER, S-9, AROCLOR 1254 (30%), Method: PREINCUBATION); “inactive; negative” (Test System: AMES SALMONELLA TYPHIMURIUM, Strain/Indicator: TA104, Metabolic Activation: NONE, Method: PREINCUBATION). For the same molecule, the mutagenic call (Test System: AMES SALMONELLA TYPHIMURIUM, Strain/Indicator: TA104, Metabolic Activation: RAT, LIVER, S-9, AROCLOR 1254 (10%), Method: PREINCUBATION) is “inactive; negative”; the mutagenic call (Test System: AMES SALMONELLA TYPHIMURIUM, Strain/Indicator: TA104, Metabolic Activation: RAT, LIVER, S-9, AROCLOR 1254 (30%), Method: PREINCUBATION) was “inactive; negative”; the mutagenic call (Test System: AMES SALMONELLA TYPHIMURIUM, Strain/Indicator: TA1535, Metabolic Activation: HAMSTER, LIVER, S-9, AROCLOR 1254 (10%), Method: PREINCUBATION) was “inactive; negative”; the mutagenic call (Test System: AMES SALMONELLA TYPHIMURIUM, Strain/Indicator: TA1535, Metabolic Activation: HAMSTER, LIVER, S-9, AROCLOR 1254 (30%), Method: PREINCUBATION) is “inactive; negative”; the mutagenic call (Test System: AMES SALMONELLA TYPHIMURIUM, Strain/Indicator: TA1535, Metabolic Activation: NONE, Method: PREINCUBATION) is “inactive; negative”; the mutagenic call (Test System: AMES SALMONELLA TYPHIMURIUM, Strain/Indicator: TA1535, Metabolic Activation: RAT, LIVER, S-9, AROCLOR 1254 (10%), Method: PREINCUBATION) was “inactive; negative”. For the same molecule, the mutagenic call (Test System: AMES SALMONELLA TYPHIMURIUM, Strain/Indicator: TA1535, Metabolic Activation: RAT, LIVER, S-9, AROCLOR 1254 (30%), Method: PREINCUBATION) was “inactive; negative”.
